According to ChEMBL document CHEMBL1201862, “PubChem BioAssay data set” (2004):
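Cells were grown in 96-well plates and exposed to each compound for 48 hours at five concentrations; endpoints were interpolated linearly between bracketing concentrations, or set to the highest concentration if not reached. GI50 marks 50% less growth.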 Calls of active or inactive are those of the source. Rule as the data show it: active = GI50 up to about 1.1 µM and inactive = higher.

Columns and labels:
Assay in all cases: NCI anticancer screen, dose series, 48 h
BT-549 = system: BT-549
PC-3 = system: PC-3
LOX IMVI = system: LOX IMVI
HOP-62 = system: HOP-62
MDA-N = system: MDA-N
HL-60 = system: HL-60
SK-MEL-5 = system: SK-MEL-5
DU-145 = system: DU-145
MCF7 = system: MCF7
UO-31 = system: UO-31
HCT-116 = system: HCT-116
SK-MEL-2 = system: SK-MEL-2
SK-MEL-28 = system: SK-MEL-28
SN12C = system: SN12C
SNB-75 = system: SNB-75
KM12 = system: KM12
SF-295 = system: SF-295
UACC-62 = system: UACC-62
HOP-92 = system: HOP-92
A498 = system: A498

SMILES	GI50 (BT-549)	GI50 (PC-3)	GI50 (LOX IMVI)	GI50 (HOP-62)	GI50 (MDA-N)	GI50 (HL-60)	GI50 (SK-MEL-5)	GI50 (DU-145)	GI50 (MCF7)	GI50 (UO-31)	GI50 (HCT-116)	GI50 (SK-MEL-2)	GI50 (SK-MEL-28)	GI50 (SN12C)	GI50 (SNB-75)	GI50 (KM12)	GI50 (SF-295)	GI50 (UACC-62)	GI50 (HOP-92)	GI50 (A498)
CCCNC(=O)Cn1c(-c2ccccc2)cc2ccccc21	> 100 µM (inactive)	41.1 µM (inactive)	> 100 µM (inactive)	67.3 µM (inactive)	83.4 µM (inactive)	> 100 µM (inactive)	30.5 µM (inactive)	> 100 µM (inactive)	37.5 µM (inactive)	> 100 µM (inactive)	24.2 µM (inactive)	69.8 µM (inactive)	92.3 µM (inactive)	> 100 µM (inactive)	25.9 µM (inactive)	> 100 µM (inactive)	88.7 µM (inactive)	26.4 µM (inactive)		
CC(=O)N1C(OCc2ccccc2)CCN1c1ccccc1 (stereo not given)	> 10 µM (inactive)	> 10 µM (inactive)	> 10 µM (inactive)	> 10 µM (inactive)	> 10 µM (inactive)	> 10 µM (inactive)	> 10 µM (inactive)	> 10 µM (inactive)		> 10 µM (inactive)	> 10 µM (inactive)	> 10 µM (inactive)	> 10 µM (inactive)	> 10 µM (inactive)	> 10 µM (inactive)		> 10 µM (inactive)		3.29 µM (inactive)	
C#CCN(C(=O)C(F)(F)F)C(/C=C\C(=O)OC)(C(=O)OCC)C(=O)OCC	> 100 µM (inactive)	> 100 µM (inactive)	> 100 µM (inactive)	> 100 µM (inactive)	> 100 µM (inactive)	> 100 µM (inactive)	> 100 µM (inactive)	> 100 µM (inactive)	> 100 µM (inactive)	> 100 µM (inactive)		> 100 µM (inactive)	> 100 µM (inactive)	> 100 µM (inactive)	> 100 µM (inactive)	> 100 µM (inactive)	> 100 µM (inactive)	> 100 µM (inactive)		> 100 µM (inactive)
Cc1cc(N(CCC#N)CCC#N)ccc1C(/N=N/c1ccccc1)=N\NC(=O)c1ccccc1	24 µM (inactive)	16.9 µM (inactive)		55.8 µM (inactive)	7.96 µM (inactive)	35.7 µM (inactive)	18.7 µM (inactive)	21.7 µM (inactive)	18.6 µM (inactive)	17.9 µM (inactive)	20.6 µM (inactive)	77.1 µM (inactive)		43.9 µM (inactive)	48.6 µM (inactive)	18.1 µM (inactive)	11.6 µM (inactive)	2.77 µM (inactive)		24.6 µM (inactive)
COC(=O)c1cc(C#N)[nH]c1-c1cccs1	31.8 µM (inactive)	47.1 µM (inactive)		47.8 µM (inactive)	> 100 µM (inactive)			86.9 µM (inactive)		81.8 µM (inactive)	> 100 µM (inactive)		> 100 µM (inactive)	> 100 µM (inactive)	25.8 µM (inactive)	> 100 µM (inactive)	86.5 µM (inactive)	97.7 µM (inactive)	30.8 µM (inactive)	37.8 µM (inactive)
Cn1c(N(CCO)CCO)cnc1[N+](=O)[O-]	> 100 µM (inactive)	> 100 µM (inactive)	> 100 µM (inactive)	> 100 µM (inactive)	> 100 µM (inactive)	> 100 µM (inactive)	> 100 µM (inactive)		> 100 µM (inactive)	> 100 µM (inactive)	> 100 µM (inactive)	> 100 µM (inactive)			> 100 µM (inactive)	> 100 µM (inactive)	> 100 µM (inactive)	> 100 µM (inactive)	> 100 µM (inactive)	> 100 µM (inactive)
COC(=O)Cc1cc(O)c2c(c1O)C(=O)c1ccccc1C2=O	> 62.4 µM (inactive)	> 100 µM (inactive)	99.1 µM (inactive)	24.3 µM (inactive)	> 100 µM (inactive)	> 94.6 µM (inactive)	68.2 µM (inactive)	> 96.2 µM (inactive)		> 100 µM (inactive)	> 71 µM (inactive)	> 67.5 µM (inactive)	> 100 µM (inactive)	99.5 µM (inactive)	20.6 µM (inactive)	> 100 µM (inactive)	27.6 µM (inactive)	> 100 µM (inactive)	16.1 µM (inactive)	48.1 µM (inactive)
CCC1(CC)C(=O)N(C(=O)c2ccccc2)N(C(=O)c2ccc(Cl)cc2)C1=O	> 75 µM (inactive)	> 75 µM (inactive)	3.35 µM (inactive)	> 75 µM (inactive)	> 75 µM (inactive)	22 µM (inactive)	> 75 µM (inactive)	> 75 µM (inactive)	> 75 µM (inactive)	> 75 µM (inactive)	43.9 µM (inactive)	> 75 µM (inactive)	> 75 µM (inactive)	> 75 µM (inactive)	> 75 µM (inactive)	> 75 µM (inactive)	> 75 µM (inactive)	> 75 µM (inactive)		
NC(=O)c1cccc(OCC(O)CO)c1 (stereo not given)	> 100 µM (inactive)	> 100 µM (inactive)		> 100 µM (inactive)	> 100 µM (inactive)	> 100 µM (inactive)	> 100 µM (inactive)	> 100 µM (inactive)	> 100 µM (inactive)	> 100 µM (inactive)	> 100 µM (inactive)	> 100 µM (inactive)	> 100 µM (inactive)	> 100 µM (inactive)	> 100 µM (inactive)	> 100 µM (inactive)	> 100 µM (inactive)	> 100 µM (inactive)		> 100 µM (inactive)
Cc1ccc(NC(=O)CC(=O)N2N=C(N(c3ccccc3)c3ccccc3)CC2c2ccccc2)cc1 (stereo not given)	> 100 µM (inactive)	85.7 µM (inactive)		> 100 µM (inactive)		> 100 µM (inactive)	> 100 µM (inactive)	> 100 µM (inactive)	> 100 µM (inactive)	> 100 µM (inactive)	> 100 µM (inactive)	> 100 µM (inactive)	> 100 µM (inactive)		91.4 µM (inactive)	> 100 µM (inactive)	> 100 µM (inactive)	> 100 µM (inactive)	> 100 µM (inactive)	> 100 µM (inactive)
C/C=C1\CC(C(=O)OCC)CCCCCCCCCCC1=O (stereo not given)	82.8 µM (inactive)	47.9 µM (inactive)	28.8 µM (inactive)	> 100 µM (inactive)	29.4 µM (inactive)	36.6 µM (inactive)	29.2 µM (inactive)	54.3 µM (inactive)	32.8 µM (inactive)	37.3 µM (inactive)	33.4 µM (inactive)	36.1 µM (inactive)	> 100 µM (inactive)	26.6 µM (inactive)	27.7 µM (inactive)	41.3 µM (inactive)	57.4 µM (inactive)	91.2 µM (inactive)		> 100 µM (inactive)
COc1ccc2oc(OC)c(CC=C(C)C)c(=O)c2c1C	> 100 µM (inactive)	> 100 µM (inactive)	> 100 µM (inactive)	> 100 µM (inactive)	> 100 µM (inactive)	> 100 µM (inactive)	> 100 µM (inactive)	> 100 µM (inactive)	> 100 µM (inactive)	> 100 µM (inactive)	> 100 µM (inactive)	> 100 µM (inactive)	> 100 µM (inactive)	> 100 µM (inactive)	> 100 µM (inactive)	> 100 µM (inactive)	> 100 µM (inactive)	> 100 µM (inactive)		> 100 µM (inactive)
Cc1ccc(-c2cc[n+]3c(n2)oc2ccccc23)cc1	28.2 µM (inactive)		35.7 µM (inactive)		31.6 µM (inactive)	10.8 µM (inactive)		51.8 µM (inactive)	30.8 µM (inactive)	67.3 µM (inactive)	29.8 µM (inactive)	22.8 µM (inactive)	22.1 µM (inactive)	> 100 µM (inactive)	25 µM (inactive)	47.1 µM (inactive)	26.7 µM (inactive)	24.2 µM (inactive)	14.2 µM (inactive)	19.1 µM (inactive)
O=C1Nc2ccccc2C(=O)O/C(Cc2ccccc2)=N\c2ccccc21	> 100 µM (inactive)	> 100 µM (inactive)	> 100 µM (inactive)	> 100 µM (inactive)	> 100 µM (inactive)	> 100 µM (inactive)	> 100 µM (inactive)	> 100 µM (inactive)	> 100 µM (inactive)	> 100 µM (inactive)	> 100 µM (inactive)	> 100 µM (inactive)	> 100 µM (inactive)	> 100 µM (inactive)	25.9 µM (inactive)	> 100 µM (inactive)	> 100 µM (inactive)	> 100 µM (inactive)		
CC(C)=CCN=C(N)N	> 100 µM (inactive)	> 100 µM (inactive)	> 100 µM (inactive)		> 100 µM (inactive)	45.8 µM (inactive)	> 100 µM (inactive)	> 100 µM (inactive)	> 100 µM (inactive)	> 100 µM (inactive)	> 100 µM (inactive)	> 100 µM (inactive)	> 100 µM (inactive)	> 100 µM (inactive)		> 100 µM (inactive)	> 100 µM (inactive)	> 100 µM (inactive)	> 100 µM (inactive)	
COc1cc(OC)c(-c2oc3ccccc3c(=O)c2O)c(OC)c1	1.67 µM (inactive)	5.69 µM (inactive)	5.98 µM (inactive)		0.867 µM (active)	2.43 µM (inactive)	3.68 µM (inactive)		6.25 µM (inactive)	> 62.7 µM (inactive)	3.76 µM (inactive)		> 22.8 µM (inactive)	> 100 µM (inactive)	6.01 µM (inactive)	1.99 µM (inactive)	2.44 µM (inactive)	2.69 µM (inactive)	8.17 µM (inactive)	3.27 µM (inactive)
